Test results taken from ChEMBL document CHEMBL1765029, “Synthesis and biological evaluation of estradiol linked pyrrolo[2,1-c][1,4]benzodiazepine (PBD) conjugates as potential anticancer agents” (2011).
Counter-ions that a name gives are not always drawn.

Key:
Assay type in all cases: functional
A2780 = assay: Cytotoxicity against human A2780 cells by sulforhodamine B method
PC-3 = assay: Cytotoxicity against human PC3 cells by sulforhodamine B method
KB = assay: Cytotoxicity against human KB cells by sulforhodamine B method
MCF7 = assay: Cytotoxicity against human MCF7 cells by sulforhodamine B method
SiHa = assay: Cytotoxicity against human SiHa cells by sulforhodamine B method
[1] = Cytotoxicity against human Gurav cells by sulforhodamine B method
HOP-62 = assay: Cytotoxicity against human HOP62 cells by sulforhodamine B method
[2] = Cytotoxicity against human DWD cells by sulforhodamine B method
A549 = assay: Cytotoxicity against human A549 cells by sulforhodamine B method
COLO 205 = assay: Cytotoxicity against human COLO205 cells by sulforhodamine B method
ZR-75-1 = assay: Cytotoxicity against human ZR-75-1 cells by sulforhodamine B method

Row | Compound | GI50 (A2780) [nM] | GI50 (PC-3) [nM] | GI50 (KB) [nM] | GI50 (MCF7) [nM] | GI50 (SiHa) [nM] | GI50 [1] [nM] | GI50 (HOP-62) [nM] | GI50 [2] [nM] | GI50 (A549) [nM] | GI50 (COLO 205) [nM] | GI50 (ZR-75-1) [nM]
1 | COc1cc2c(cc1OCCCN1CCN(CCCOc3ccc4c(c3)CC[C@@H]3[C@@H]4CC[C@]4(C)[C@@H](O)CC[C@@H]34)CC1)N=C[C@@H]1CC(F)(F)CN1C2=O | 110 | 130 | 170 | < 100 | 160 | 130 | 150 | 100 | 120 | 140 | 120
2 | COc1cccc2c1C(=O)c1c(O)c3c(c(O)c1C2=O)C[C@@](O)(C(=O)CO)C[C@@H]3O[C@H]1C[C@H](N)[C@H](O)[C@H](C)O1 [DOXORUBICIN HYDROCHLORIDE] | 160 | – | 170 | 170 | 170 | 170 | 140 | 100 | – | 140 | –
3 | COc1cc2c(cc1OCCCOc1ccc3c(c1)CC[C@@H]1[C@@H]3CC[C@]3(C)[C@@H](O)CC[C@@H]13)N=C[C@@H]1CCCN1C2=O | 1190 | 2080 | 2110 | 170 | 2120 | 2050 | 2230 | 170 | 2100 | 160 | 1190
4 | COc1cc2c(cc1OCCCCCN1CCN(CCCCCOc3ccc4c(c3)CC[C@@H]3[C@@H]4CC[C@]4(C)[C@@H](O)CC[C@@H]34)CC1)N=C[C@@H]1CCCN1C2=O | 1700 | 190 | 190 | 140 | 170 | 190 | 1170 | 170 | 160 | 1160 | 170
5 | COc1cc2c(cc1OCCCCCOc1ccc3c(c1)CC[C@@H]1[C@@H]3CC[C@]3(C)[C@@H](O)CC[C@@H]13)N=C[C@@H]1CCCN1C2=O | 1190 | 2190 | 2130 | 170 | 2180 | 2040 | 2240 | 180 | 2200 | 190 | 1190
6 | COc1cc2c(cc1OCCCCCN1CCN(CCCCCOc3ccc4c(c3)CC[C@@H]3[C@@H]4CC[C@]4(C)[C@@H](O)CC[C@@H]34)CC1)N=C[C@@H]1C[C@@H](F)CN1C2=O | 110 | 170 | 140 | 130 | 160 | 130 | 130 | 150 | 110 | 140 | < 100
7 | COc1cc2c(cc1OCCCCCOc1ccc3c(c1)CC[C@@H]1[C@@H]3CC[C@]3(C)[C@@H](O)CC[C@@H]13)N=C[C@@H]1C[C@@H](F)CN1C2=O | 190 | 190 | 2170 | 150 | 2310 | 180 | 190 | 1900 | 180 | 170 | 170
8 | COc1cc2c(cc1OCCCOc1ccc3c(c1)CC[C@@H]1[C@@H]3CC[C@]3(C)[C@@H](O)CC[C@@H]13)N=C[C@@H]1CC(F)(F)CN1C2=O | 2100 | 2400 | 150 | 170 | 2810 | 2180 | 2110 | 2040 | 2810 | 100 | 180
9 | COc1cc2c(cc1OCCCOc1ccc3c(c1)CC[C@@H]1[C@@H]3CC[C@]3(C)[C@@H](O)CC[C@@H]13)N=C[C@@H]1C[C@@H](F)CN1C2=O | 170 | 190 | 2160 | 140 | 2120 | 190 | 180 | 1700 | 180 | 160 | 140
10 | COc1cc2c(cc1OCCCCCN1CCN(CCCCCOc3ccc4c(c3)CC[C@@H]3[C@@H]4CC[C@]4(C)[C@@H](O)CC[C@@H]34)CC1)N=C[C@@H]1CC(F)(F)CN1C2=O | 160 | 190 | 810 | 140 | 190 | 150 | 170 | 1320 | 130 | 170 | 120
11 | COc1cc2c(cc1OCc1cn(CCCOc3ccc4c(c3)CC[C@@H]3[C@@H]4CC[C@]4(C)[C@@H](O)CC[C@@H]34)nn1)N=C[C@@H]1CC(F)(F)CN1C2=O | 1270 | 140 | 190 | 110 | 1120 | 170 | 180 | 170 | 170 | 140 | 170
12 | COc1cc2c(cc1OCCCCCOc1ccc3c(c1)CC[C@@H]1[C@@H]3CC[C@]3(C)[C@@H](O)CC[C@@H]13)N=C[C@@H]1CC(F)(F)CN1C2=O | 2120 | 2420 | 140 | 170 | 2810 | 2190 | 2110 | 2170 | 2810 | 200 | 190
13 | COc1cc2c(cc1OCc1cn(CCCOc3ccc4c(c3)CC[C@@H]3[C@@H]4CC[C@]4(C)[C@@H](O)CC[C@@H]34)nn1)N=C[C@@H]1CCCN1C2=O | 170 | 190 | 310 | 120 | 1140 | 170 | 1180 | 160 | 180 | 170 | 190
14 | COc1cc2c(cc1OCc1cn(CCCCCOc3ccc4c(c3)CC[C@@H]3[C@@H]4CC[C@]4(C)[C@@H](O)CC[C@@H]34)nn1)N=C[C@@H]1CCCN1C2=O | 170 | 190 | 800 | 140 | 1170 | 180 | 1690 | 170 | 190 | 170 | 110
